# Reference: publication PMC8329300, “X-ray crystallography reveals molecular recognition mechanism for sugar binding in a melibiose transporter MelB” (Communications Biology, 2021)
# Like-named read-outs stand apart in the source and are kept apart here.
# Key:
# WT MelBSt = biological target: T1, WT MelBSt (Salmonella typhimurium, UniProt P30878); details: ITC 25 °C, data from publication or averaged with more tests, read-out: Kd of substrate binding, Melibiose, cited from earlier work
# T1 construct: Cys scanning mutagenesis for the full-length MelBSt; His10 (C); made in house; host or cells: E. coli DW2
# T1 sequence (P30878 whole entry): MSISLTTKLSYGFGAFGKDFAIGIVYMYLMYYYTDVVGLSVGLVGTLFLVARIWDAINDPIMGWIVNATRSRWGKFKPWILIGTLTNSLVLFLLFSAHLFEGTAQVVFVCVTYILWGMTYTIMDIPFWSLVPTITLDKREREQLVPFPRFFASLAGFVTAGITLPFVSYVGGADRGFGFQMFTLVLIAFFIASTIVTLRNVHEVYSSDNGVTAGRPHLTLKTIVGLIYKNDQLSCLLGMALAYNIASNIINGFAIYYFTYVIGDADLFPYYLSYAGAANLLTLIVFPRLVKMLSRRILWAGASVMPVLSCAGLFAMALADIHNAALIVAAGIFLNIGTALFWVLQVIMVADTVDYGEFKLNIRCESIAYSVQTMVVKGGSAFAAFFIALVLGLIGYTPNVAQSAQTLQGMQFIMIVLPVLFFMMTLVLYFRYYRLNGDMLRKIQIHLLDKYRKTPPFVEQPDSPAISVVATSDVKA
# MelBSt D59C = biological target: T2, MelBSt D59C (Salmonella typhimurium, UniProt P30878, D59C); test: [3H]Melibiose transport time course with DW2 intact cells expressing MelBSt D59C; format: cell-based; details: 0.4 mM [3H]melibiose
# T2 construct: Cys scanning mutagenesis for the full-length MelBSt; expressed in transfected cells; host or cells: E. coli DW2 (melA+, melB-, lacZ-Y-)
# T2 sequence (P30878 whole entry D59C): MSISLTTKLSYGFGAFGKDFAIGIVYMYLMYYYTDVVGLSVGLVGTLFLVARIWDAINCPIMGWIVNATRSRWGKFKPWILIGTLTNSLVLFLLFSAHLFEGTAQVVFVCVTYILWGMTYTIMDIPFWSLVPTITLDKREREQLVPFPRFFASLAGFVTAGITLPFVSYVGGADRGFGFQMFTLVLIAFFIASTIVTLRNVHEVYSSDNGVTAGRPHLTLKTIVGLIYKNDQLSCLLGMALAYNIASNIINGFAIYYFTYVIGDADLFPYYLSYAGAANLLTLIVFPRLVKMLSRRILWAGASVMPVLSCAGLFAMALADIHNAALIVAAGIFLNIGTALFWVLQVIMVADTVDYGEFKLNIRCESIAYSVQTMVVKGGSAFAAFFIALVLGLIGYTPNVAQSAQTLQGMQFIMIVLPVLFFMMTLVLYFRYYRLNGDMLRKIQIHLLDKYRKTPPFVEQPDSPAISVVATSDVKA
# Description: Fig. 1 Functional characterizations. a [^3H] Melibiose transport time course with intact cells. E. coli DW2 strain (melB^−, lacZ^−Y^−) expressed with the WT, D59C, or D59A MelBSt mutants were subjected to [^3H]melibiose active transport assay at 0.4 mM and 10 mCi/mmol in the presence of 20 mM or 100 mM NaCl or LiCl by a fast filtration method. Inset, melibiose fermentation assay. Transformants with DW2 strain were plated on MacConkey agar plates containing 30 mM melibiose as the sole carbohydrate source and pH sensor neutral red, and incubated at 37 °C for 16–18 h before imaging. Number of tests = 3, from different batch of cells or duplicate measurements from same batch of sample. b Ligand binding by Trp→dansyl galactoside (D^2G) FRET assay. Purified proteins at 1 μM concentration in 20 mM Tris-HCl, pH 7.5, 100 mM CholCl, 10% glycerol, and 0.03% UDM were subjected to steady-state fluorescence measurements as described in Methods. On the time-trace, 1.8 μL of 1 mM D^2G at 10 μM was added into 180 μL of protein solutions at 1-min point, followed by supplying 10 μL of 5 mM DDMB or 5 mM α-NPG to displace the bound D^2G. For testing Na^+ or Li^+ binding, they are added into the solution before displacement with the second sugar. The structure of DDMB or α-NPG is shown in a chair form, and the carbon positions are labeled. Glycosidic bonds are indicated by arrows. Both are α-galactosides containing a substituent at the anomeric carbon-1. The data were from duplicate measurements.
# The overexpression of MelBSt was carried out in the E. coli DW2 strain (melA^+, melB^−, and lacZ^−Y^−) from a constitutive expression plasmid pK95ΔAH/MelBSt/CHis10[9],[28],[33]. The D59C or D59A mutant with Cys or Ala at the position 59, respectively, was constructed previously[9] or in this study by QuikChange Site-Directed Mutagenesis kit and confirmed by DNA sequencing analysis. E. coli DW2 cells containing a given plasmid were grown in Luria-Bertani (LB) broth (5 g yeast extract and 10 g tryptone per liter with 171 mM NaCl) with 100 mg/L of ampicillin in a 37 °C shaker. The overnight cultures were diluted by 5% with LB broth supplemented with 0.5% glycerol and 100 mg/L of ampicillin, and constitutive overexpression was obtained by shaking at 30 °C for another 5 h.
# E. coli DW2 cells expressing MelBSt were washed with 100 mM KPi, pH 7.5, to remove Na^+ contamination as described previously. The cell pellets were resuspended with the assay buffer (100 mM KPi, pH 7.5, 10 mM MgSO4) and adjusted to A420 of 10 (∼0.7 mg protein/ml). Using a fast filtration, transport time course at 0.4 mM melibiose (at specific activity of 10 mCi/mmol) was carried out in the absence or presence of NaCl or LiCl at 20 mM or 100 mM, respectively, and intracellular melibiose was determined as described previously.
structure (smiles),measurement,setting,value
OC[C@H]1O[C@H](OCC2O[C@@H](O)[C@H](O)[C@@H](O)[C@@H]2O)[C@H](O)[C@@H](O)[C@H]1O (stereo partly drawn) [Melibiose],Kd,WT MelBSt; Apo,9.28 ± 0.23 mM
same,Kd,WT MelBSt; Na+ (100 mM),1.09 ± 0.06 mM
same,Melibiose transport,"MelBSt D59C; H+, Time 0.08",2.90
same,Melibiose transport,"MelBSt D59C; H+, Time 0.17",4.95
same,Melibiose transport,"MelBSt D59C; H+, Time 0.50",7.21
same,Melibiose transport,"MelBSt D59C; H+, Time 1.00",7.87
same,Melibiose transport,"MelBSt D59C; H+, Time 2.00",9.68
same,Melibiose transport,"MelBSt D59C; H+, Time 5.00",7.94
same,Melibiose transport,"MelBSt D59C; H+, Time 10.00",6.75
same,Melibiose transport,"MelBSt D59C; H+, Time 30.00",4.22
same,Melibiose transport,"MelBSt D59C; Li+, 20 mM, Time 0.08",4.23
same,Melibiose transport,"MelBSt D59C; Li+, 20 mM, Time 0.17",7.46
same,Melibiose transport,"MelBSt D59C; Li+, 20 mM, Time 0.50",9.40
same,Melibiose transport,"MelBSt D59C; Li+, 20 mM, Time 1.00",8.14
same,Melibiose transport,"MelBSt D59C; Li+, 20 mM, Time 2.00",8.43
same,Melibiose transport,"MelBSt D59C; Li+, 20 mM, Time 5.00",9.92
same,Melibiose transport,"MelBSt D59C; Li+, 20 mM, Time 10.00",9.02
same,Melibiose transport,"MelBSt D59C; Li+, 20 mM, Time 30.00",7.58
same,Melibiose transport,"MelBSt D59C; Li+, 100 mM, Time 0.08",5.34
same,Melibiose transport,"MelBSt D59C; Li+, 100 mM, Time 0.17",7.70
same,Melibiose transport,"MelBSt D59C; Li+, 100 mM, Time 0.50",7.46
same,Melibiose transport,"MelBSt D59C; Li+, 100 mM, Time 1.00",5.16
same,Melibiose transport,"MelBSt D59C; Li+, 100 mM, Time 2.00",7.88
same,Melibiose transport,"MelBSt D59C; Li+, 100 mM, Time 5.00",5.54
same,Melibiose transport,"MelBSt D59C; Li+, 100 mM, Time 10.00",7.56
same,Melibiose transport,"MelBSt D59C; Li+, 100 mM, Time 30.00",11.83
same,Melibiose transport,"MelBSt D59C; Na+, 20 mM, Time 0.08",4.91
same,Melibiose transport,"MelBSt D59C; Na+, 20 mM, Time 0.17",5.04
same,Melibiose transport,"MelBSt D59C; Na+, 20 mM, Time 0.50",6.31
same,Melibiose transport,"MelBSt D59C; Na+, 20 mM, Time 1.00",7.41
same,Melibiose transport,"MelBSt D59C; Na+, 20 mM, Time 2.00",16.16
same,Melibiose transport,"MelBSt D59C; Na+, 20 mM, Time 5.00",8.09
same,Melibiose transport,"MelBSt D59C; Na+, 20 mM, Time 10.00",6.24
same,Melibiose transport,"MelBSt D59C; Na+, 20 mM, Time 30.00",9.30
same,Melibiose transport,"MelBSt D59C; Na+, 100 mM, Time 0.08",0.60
same,Melibiose transport,"MelBSt D59C; Na+, 100 mM, Time 0.17",4.32
same,Melibiose transport,"MelBSt D59C; Na+, 100 mM, Time 0.50",10.86
same,Melibiose transport,"MelBSt D59C; Na+, 100 mM, Time 1.00",12.92
same,Melibiose transport,"MelBSt D59C; Na+, 100 mM, Time 2.00",6.61
same,Melibiose transport,"MelBSt D59C; Na+, 100 mM, Time 5.00",1.42
same,Melibiose transport,"MelBSt D59C; Na+, 100 mM, Time 10.00",5.04
same,Melibiose transport,"MelBSt D59C; Na+, 100 mM, Time 30.00",9.00
